# From PubChem BioAssay (NCI)
#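 Protocol summary: plate cells (96-well), add compound at 5 concentrations, incubate 48 h, interpolate endpoints linearly. GI50: concentration for 50% inhibition of growth. TGI denotes the concentration required for complete inhibition of growth.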
# Legend:
# Test in all cases: NCI anticancer screen, dose series, 48 h
# HCT-15 colon = tested on: HCT-15 colon
# OVCAR-5 ovarian = tested on: OVCAR-5 ovarian
# SF-539 CNS = tested on: SF-539 CNS
# HOP-62 NSCLC = tested on: HOP-62 NSCLC
# A498 renal = tested on: A498 renal
# RXF 393 renal = tested on: RXF 393 renal
# UACC-257 melanoma = tested on: UACC-257 melanoma
# SW-620 colon = tested on: SW-620 colon
# LOX IMVI melanoma = tested on: LOX IMVI melanoma
# DU-145 prostate = tested on: DU-145 prostate
# A549 NSCLC = tested on: A549 NSCLC
# HCC-2998 colon = tested on: HCC-2998 colon
# MDA-MB-468 breast = tested on: MDA-MB-468 breast
# SR leukemia = tested on: SR leukemia
# K-562 leukemia = tested on: K-562 leukemia
# CAKI-1 renal = tested on: CAKI-1 renal
# SK-MEL-2 melanoma = tested on: SK-MEL-2 melanoma
# SK-MEL-5 melanoma = tested on: SK-MEL-5 melanoma
# NCI-H23 lung = tested on: NCI-H23 lung
# OVCAR-4 ovarian = tested on: OVCAR-4 ovarian
# HOP-92 NSCLC = tested on: HOP-92 NSCLC
# COLO 205 colon = tested on: COLO 205 colon
# NCI-H522 lung = tested on: NCI-H522 lung
# MOLT-4 leukemia = tested on: MOLT-4 leukemia
# BT-549 breast = tested on: BT-549 breast
# U251 CNS = tested on: U251 CNS
# T-47D breast = tested on: T-47D breast
# RPMI-8226 leukemia = tested on: RPMI-8226 leukemia
# EKVX NSCLC = tested on: EKVX NSCLC
# SK-OV-3 ovarian = tested on: SK-OV-3 ovarian
compound,measurement,setting,value
COc1cccc(/C=N/NC(=O)c2ccc3nc(-c4ccc(Cl)cc4)[nH]c3c2)c1O,GI50,HCT-15 colon,1.31 µM
same,TGI,HCT-15 colon,> 40 µM
same,GI50,OVCAR-5 ovarian,1.85 µM
same,TGI,OVCAR-5 ovarian,5.08 µM
same,GI50,SF-539 CNS,0.428 µM
same,TGI,SF-539 CNS,1.02 µM
same,GI50,HOP-62 NSCLC,0.57 µM
same,TGI,HOP-62 NSCLC,1.85 µM
same,GI50,A498 renal,5 µM
same,TGI,A498 renal,11.9 µM
same,GI50,RXF 393 renal,0.972 µM
same,TGI,RXF 393 renal,2.46 µM
same,GI50,UACC-257 melanoma,1.19 µM
same,TGI,UACC-257 melanoma,3.53 µM
same,GI50,SW-620 colon,1.32 µM
same,TGI,SW-620 colon,3.52 µM
same,GI50,LOX IMVI melanoma,1.18 µM
same,TGI,LOX IMVI melanoma,2.53 µM
same,GI50,DU-145 prostate,1.34 µM
same,TGI,DU-145 prostate,3.28 µM
same,GI50,A549 NSCLC,3.68 µM
same,TGI,A549 NSCLC,14.8 µM
same,GI50,HCC-2998 colon,0.8 µM
same,TGI,HCC-2998 colon,2.2 µM
same,GI50,MDA-MB-468 breast,0.611 µM
same,TGI,MDA-MB-468 breast,1.45 µM
same,GI50,SR leukemia,0.369 µM
same,TGI,SR leukemia,3.75 µM
same,GI50,K-562 leukemia,0.332 µM
same,GI50,CAKI-1 renal,1.01 µM
same,TGI,CAKI-1 renal,3.51 µM
same,GI50,SK-MEL-2 melanoma,0.378 µM
same,TGI,SK-MEL-2 melanoma,1.49 µM
same,GI50,SK-MEL-5 melanoma,0.772 µM
same,TGI,SK-MEL-5 melanoma,2.09 µM
same,GI50,NCI-H23 lung,0.525 µM
same,TGI,NCI-H23 lung,1.54 µM
same,GI50,OVCAR-4 ovarian,0.728 µM
same,TGI,OVCAR-4 ovarian,3.18 µM
same,GI50,HOP-92 NSCLC,0.67 µM
same,TGI,HOP-92 NSCLC,2.4 µM
same,GI50,COLO 205 colon,1.58 µM
same,TGI,COLO 205 colon,3.56 µM
same,GI50,NCI-H522 lung,1.17 µM
same,TGI,NCI-H522 lung,2.81 µM
same,GI50,MOLT-4 leukemia,0.421 µM
same,TGI,MOLT-4 leukemia,2.46 µM
same,GI50,BT-549 breast,0.673 µM
same,TGI,BT-549 breast,1.79 µM
same,GI50,U251 CNS,1.5 µM
same,TGI,U251 CNS,3.08 µM
same,GI50,T-47D breast,0.389 µM
same,TGI,T-47D breast,2.01 µM
same,GI50,RPMI-8226 leukemia,2.22 µM
same,TGI,RPMI-8226 leukemia,5.54 µM
same,GI50,EKVX NSCLC,2.12 µM
same,TGI,EKVX NSCLC,9.8 µM
same,GI50,SK-OV-3 ovarian,1.03 µM
same,TGI,SK-OV-3 ovarian,2.79 µM
